The values below are quoted from earlier work in US20220305008A1, “TREATMENT OF CANCER HAVING GNAQ OR GNA11 GENETIC MUTATIONS WITH PROTEIN KINASE C INHIBITORS” (IDEAYA BIOSCIENCES, INC., priority 2019, published 2022).

Data set [1] deals with metastatic uveal melanoma (MUM). The conditions noted are these: patients with MUM (metastatic uveal melanoma).
The conditions of data set [2]: in vivo, po.

On to `CC1(N)CCN(c2cccnc2NC(=O)c2nc(-c3ncccc3C(F)(F)F)cnc2N)CC1` [IDE196], for which, in data set [1], the anti-tumor activity entry is recorded as “preliminary anti-tumor activity”. Also, the “safety and tolerability of dose” value in data set [2] is “safe and tolerable”.
